Square brackets hold non-standard residues; d marks the D form. Peptide text beside a SMILES is read from it. 2Nal = N[C@@H](Cc1ccc2ccccc2c1)C(=O)O; pGlu = O=C1CC[C@@H](C(=O)O)N1
What was measured:
[1] = biological target: Corticotropin-releasing factor receptor 2 (Mus musculus, UniProt Q60748); assay: In vitro effective concentration for mouse corticotropin releasing factor 2 receptor
[2] = biological target: T1, Corticotropin-releasing factor receptor 1 (Mus musculus, UniProt P35347); assay: In vitro effective concentration for mouse corticotropin releasing factor 1 receptor
T1 sequence (P35347 whole entry): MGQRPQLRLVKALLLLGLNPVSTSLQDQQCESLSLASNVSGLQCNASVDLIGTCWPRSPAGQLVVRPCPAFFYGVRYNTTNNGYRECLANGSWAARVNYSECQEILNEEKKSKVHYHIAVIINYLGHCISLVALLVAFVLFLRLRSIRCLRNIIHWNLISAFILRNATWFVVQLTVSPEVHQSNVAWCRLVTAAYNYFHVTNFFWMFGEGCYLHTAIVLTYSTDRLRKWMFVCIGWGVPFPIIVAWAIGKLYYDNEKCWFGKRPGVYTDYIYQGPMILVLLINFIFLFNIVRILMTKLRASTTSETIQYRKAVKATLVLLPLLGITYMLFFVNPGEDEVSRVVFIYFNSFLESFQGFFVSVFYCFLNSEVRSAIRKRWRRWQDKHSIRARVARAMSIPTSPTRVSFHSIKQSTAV

Chain of Corticotropin-releasing factor receptor 2 (Q60748 whole entry): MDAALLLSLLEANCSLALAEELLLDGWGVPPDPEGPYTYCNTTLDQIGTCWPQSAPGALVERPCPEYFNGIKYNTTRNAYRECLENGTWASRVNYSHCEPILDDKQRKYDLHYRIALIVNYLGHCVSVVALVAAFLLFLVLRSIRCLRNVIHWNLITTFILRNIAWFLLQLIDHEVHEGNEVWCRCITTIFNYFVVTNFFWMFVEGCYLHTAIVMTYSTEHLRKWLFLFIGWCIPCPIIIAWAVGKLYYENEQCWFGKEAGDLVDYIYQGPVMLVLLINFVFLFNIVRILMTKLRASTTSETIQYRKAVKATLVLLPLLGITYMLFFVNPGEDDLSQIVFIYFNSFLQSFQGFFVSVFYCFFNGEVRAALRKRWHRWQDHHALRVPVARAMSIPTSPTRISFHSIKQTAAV

Row | Compound | EC50 [1] | EC50 [2]
1 | CC[C@H](C)[C@H](NC(=O)[C@@H](NC(=O)[C@H](CC(=O)O)NC(=O)[C@H](CC(C)C)NC(=O)[C@H](CC(C)C)NC(=O)[C@H](CC(C)C)NC(=O)[C@H](CCCNC(=N)N)NC(=O)[C@H](CC(N)=O)NC(=O)[C@H](CC(N)=O)NC(=O)[C@H](C)NC(=O)[C@H](C)NC(=O)[C@H](CCC(N)=O)NC(=O)[C@H](CCC(N)=O)NC(=O)[C@H](CCCCN)NC(=O)[C@H](CCC(=O)O)NC(=O)[C@H](CCCCN)NC(=O)[C@H](CCC(=O)O)NC(=O)[C@H](CCC(N)=O)NC(=O)[C@H](CCCCN)NC(=O)[C@H](CCC(=O)O)NC(=O)[C@@H](NC(=O)[C@H](CCC(=O)O)NC(=O)[C@@H](NC(=O)[C@H](CCSC)NC(=O)[C@H](CCCCN)NC(=O)[C@H](CCCNC(=N)N)NC(=O)[C@H](CC(C)C)NC(=O)[C@H](CC(C)C)NC(=O)[C@H](Cc1ccc(O)cc1)NC(=O)[C@H](CC(C)C)NC(=O)[C@@H]1CCCN1C(=O)[C@H](CC(C)C)NC(=O)[C@H](CC(=O)O)NC(=O)[C@@H](NC(=O)[C@H](CO)NC(=O)[C@@H](NC(=O)[C@@H]1CCCN1C(=O)[C@@H]1CCCN1C(=O)CNC(=O)[C@@H]1CCC(=O)N1)[C@@H](C)CC)[C@@H](C)CC)[C@@H](C)CC)[C@@H](C)CC)[C@@H](C)O)C(=O)O ([pGlu]GPPISIDLPLYLLRKMIEIEKQEKEKQQAANNRLLLDTI-OH) | 4.3 nM | 67.9 nM
2 | CC[C@H](C)[C@H](NC(=O)[C@@H](NC(=O)[C@H](CC(=O)O)NC(=O)[C@H](CC(C)C)NC(=O)[C@H](CC(C)C)NC(=O)[C@H](CC(C)C)NC(=O)[C@H](CCCNC(=N)N)NC(=O)[C@H](CC(N)=O)NC(=O)[C@H](CC(N)=O)NC(=O)[C@H](C)NC(=O)[C@H](C)NC(=O)[C@H](CCC(N)=O)NC(=O)[C@H](CCC(N)=O)NC(=O)[C@H](CCCCN)NC(=O)[C@H](CCC(=O)O)NC(=O)[C@H](CCCCN)NC(=O)[C@H](CCC(=O)O)NC(=O)[C@H](CCC(N)=O)NC(=O)[C@H](CCCCN)NC(=O)[C@H](CCC(=O)O)NC(=O)[C@@H](NC(=O)[C@H](CCC(=O)O)NC(=O)[C@@H](NC(=O)[C@H](CCSC)NC(=O)[C@H](CCCCN)NC(=O)[C@H](CCCNC(=N)N)NC(=O)[C@H](CC(C)C)NC(=O)[C@H](CC(C)C)NC(=O)[C@H](CC(C)C)NC(=O)[C@@H](NC(=O)[C@@H]1CCCN1C(=O)[C@H](CC(C)C)NC(=O)[C@H](CC(=O)O)NC(=O)[C@@H](NC(=O)[C@H](CO)NC(=O)[C@@H](NC(=O)[C@@H]1CCCN1C(=O)[C@@H]1CCCN1C(=O)CNC(=O)[C@@H]1CCC(=O)N1)[C@@H](C)CC)[C@@H](C)CC)[C@@H](C)O)[C@@H](C)CC)[C@@H](C)CC)[C@@H](C)O)C(=O)O | 20.6 nM | > 1000 nM
3 | CC[C@H](C)[C@H](NC(=O)[C@@H](NC(=O)[C@H](CC(=O)O)NC(=O)[C@H](CC(C)C)NC(=O)[C@H](CC(C)C)NC(=O)[C@H](CC(C)C)NC(=O)[C@H](CCCNC(=N)N)NC(=O)[C@H](CC(N)=O)NC(=O)[C@H](CC(N)=O)NC(=O)[C@H](C)NC(=O)[C@H](C)NC(=O)[C@H](CCC(N)=O)NC(=O)[C@H](CCC(N)=O)NC(=O)[C@H](CCCCN)NC(=O)[C@H](CCC(=O)O)NC(=O)[C@H](CCCCN)NC(=O)[C@H](CCC(=O)O)NC(=O)[C@H](CCC(N)=O)NC(=O)[C@H](CCCCN)NC(=O)[C@H](CCC(=O)O)NC(=O)[C@@H](NC(=O)[C@H](CCC(=O)O)NC(=O)[C@@H](NC(=O)[C@H](CCSC)NC(=O)[C@H](CCCCN)NC(=O)[C@H](CCCNC(=N)N)NC(=O)[C@H](CC(C)C)NC(=O)[C@H](CC(C)C)NC(=O)[C@H](Cc1ccc2ccccc2c1)NC(=O)[C@H](C)NC(=O)[C@@H]1CCCN1C(=O)[C@H](CC(C)C)NC(=O)[C@H](CC(=O)O)NC(=O)[C@@H](NC(=O)[C@H](CO)NC(=O)[C@@H](NC(=O)[C@@H]1CCCN1C(=O)[C@@H]1CCCN1C(=O)CNC(=O)[C@@H]1CCC(=O)N1)[C@@H](C)CC)[C@@H](C)CC)[C@@H](C)CC)[C@@H](C)CC)[C@@H](C)O)C(=O)O ([pGlu]GPPISIDLPA[2Nal]LLRKMIEIEKQEKEKQQAANNRLLLDTI-OH) | 13.3 nM | 582 nM
4 | CC[C@H](C)[C@H](NC(=O)[C@@H](NC(=O)[C@H](CC(=O)O)NC(=O)[C@H](CC(C)C)NC(=O)[C@H](CC(C)C)NC(=O)[C@H](CC(C)C)NC(=O)[C@H](CCCNC(=N)N)NC(=O)[C@H](CC(N)=O)NC(=O)[C@H](CC(N)=O)NC(=O)[C@H](C)NC(=O)[C@H](C)NC(=O)[C@H](CCC(N)=O)NC(=O)[C@H](CCC(N)=O)NC(=O)[C@H](CCCCN)NC(=O)[C@H](CCC(=O)O)NC(=O)[C@H](CCCCN)NC(=O)[C@H](CCC(=O)O)NC(=O)[C@H](CCC(N)=O)NC(=O)[C@H](CCCCN)NC(=O)[C@H](CCC(=O)O)NC(=O)[C@@H](NC(=O)[C@H](CCC(=O)O)NC(=O)[C@@H](NC(=O)[C@H](CCSC)NC(=O)[C@H](CCCCN)NC(=O)[C@H](CCCNC(=N)N)NC(=O)[C@H](CC(C)C)NC(=O)[C@H](CC(C)C)NC(=O)[C@H](CCC(=O)O)NC(=O)[C@H](CC(C)C)NC(=O)[C@@H]1CCCN1C(=O)[C@H](CC(C)C)NC(=O)[C@H](CC(=O)O)NC(=O)[C@@H](NC(=O)[C@H](CO)NC(=O)[C@@H](NC(=O)[C@@H]1CCCN1C(=O)[C@@H]1CCCN1C(=O)CNC(=O)[C@@H]1CCC(=O)N1)[C@@H](C)CC)[C@@H](C)CC)[C@@H](C)CC)[C@@H](C)CC)[C@@H](C)O)C(=O)O | 10.9 nM | 96 nM
5 | CC[C@H](C)[C@H](NC(=O)[C@@H](NC(=O)[C@H](CC(=O)O)NC(=O)[C@H](CC(C)C)NC(=O)[C@H](CC(C)C)NC(=O)[C@H](CC(C)C)NC(=O)[C@H](CCCNC(=N)N)NC(=O)[C@H](CC(N)=O)NC(=O)[C@H](CC(N)=O)NC(=O)[C@H](C)NC(=O)[C@H](C)NC(=O)[C@H](CCC(N)=O)NC(=O)[C@H](CCC(N)=O)NC(=O)[C@H](CCCCN)NC(=O)[C@H](CCC(=O)O)NC(=O)[C@H](CCCCN)NC(=O)[C@H](CCC(=O)O)NC(=O)[C@H](CCC(N)=O)NC(=O)[C@H](CCCCN)NC(=O)[C@H](CCC(=O)O)NC(=O)[C@@H](NC(=O)[C@H](CCC(=O)O)NC(=O)[C@@H](NC(=O)[C@H](CCSC)NC(=O)[C@H](CCCCN)NC(=O)[C@H](CCCNC(=N)N)NC(=O)[C@H](CC(C)C)NC(=O)[C@H](CC(C)C)NC(=O)[C@H](CC(C)C)NC(=O)[C@H](CC(C)C)NC(=O)[C@@H]1CCCN1C(=O)[C@H](CC(C)C)NC(=O)[C@H](CC(=O)O)NC(=O)[C@@H](NC(=O)[C@H](CO)NC(=O)[C@@H](NC(=O)[C@@H]1CCCN1C(=O)[C@@H]1CCCN1C(=O)CNC(=O)[C@@H]1CCC(=O)N1)[C@@H](C)CC)[C@@H](C)CC)[C@@H](C)CC)[C@@H](C)CC)[C@@H](C)O)C(=O)O | 7.4 nM | 162 nM

Reference: ChEMBL document CHEMBL1139487, “Discovery of corticotropin releasing factor 2 receptor selective sauvagine analogues for treatment of skeletal muscle atrophy” (J Med Chem, 2005)
